The values that follow come from patent US11498928B2, “Macrocyclic spiroethers as Mcl-1 inhibitors” (ASCENTAGE PHARMA (SUZHOU) CO., LTD., priority 2019, dated 2022).

Read-outs that look alike come from different tables or passages of the source.

Series [1] concerns the target T1, Mcl-1 protein (residues 171-323) (Homo sapiens, UniProt Q07820).
T1 construct: Tag-free Mcl-1 protein (residues 171-323) was used in the FP assay
The series can be described thus: Inhibition of Mcl-1 by fluorescence polarization (FP) competitive binding assay with FAM-Bid tracer. To be noted: 2 nM FAM-Bid, 20 nM Mcl-1, 30 min. Here is the method:
Inhibition of Mcl-1 by Fluorescence Polarization (FP) Assay.
The relative binding potency of representative Compounds of the Disclosure was determined by a fluorescence polarization (FP) assay (Long et al, BMC Biotechnology 13:45 (2013)). The method used a fluorescein labelled peptide (FAM-Bid) which binds to the Mcl-1 protein leading to an increased anisotropy measured in milli-polarization (mP) values using a plate reader. […] Tag-free Mcl-1 protein (residues 171-323) was used in the FP assay (Mady et al, Scientific Reports 8: 10210-10210 (2018); Yang et al, ACS Med. Chem. Lett. 3:308-312 (2012)).
A 10-points serial dilution of each compound was prepared in DMSO and 5 μL solution was transferred into flat bottomed, 96-well back plate (final DMSO concentration 5%). 120 μL of Buffer (PBS, 0.01% BGG (Sigma Cat. #SRE0011), 0.01% Triton X-100), containing the Fluorescein labelled peptide (Final concentration 2 nM) and Mcl-1 protein (final concentration 20 nM) was then added. Assay plates were incubated 30 mins at room temperature with gentle shaking before FP was measured on a Biotek Synergy 1MF reader (Ex. 485 nm, Em. 528 nm, Cut off 510 nm) and mP calculated. The binding of increasing doses of test compounds was expressed as a percentage reduction in mP compared to a window established between 5% DMSO only and 100% inhibition controls (no Mcl-1 protein). 10-points dose response curves were plotted with GraphPad software using Sigmoidal Dose-Response Model and the IC50 values were determined by nonlinear regression fitting of the competition curves. Cell Viability Assay (NCI-H929 cells)

In another series the test system is OPM-2 cells. The series can be described thus: Cell viability assay (OPM-2 cells), CCK-8. Format: cell-based. The following applies: 5% FBS. The method, then: OPM-2 cells were obtained from Deutsche Sammlung von Mikroorganismen and Zellkulturen GmbH (DSMZ). Cells were maintained in the recommended culture medium with 10% FBS at 37° C. and an atmosphere of 5% CO2.
The effect of representative Compounds of the Disclosure on cell viability was determined using Cell Counting Kit-8 (CCK-8) assay (Shanghai Life iLab Bio Technology) according to the manufacturer's instructions. Each tested compound was serially diluted in culture medium, 100 μL of the compound dilution was added into 96-well plates. 100 μL of an OPM-2 cell suspension (20000 cells/well) in culture medium were seeded into the corresponding well of the plate and the cells were incubated at 37° C. in an atmosphere of 5% CO2 for 24 hours. In the next day, 20 μL of CCK-8 solution was added to each well of the plate and incubated for 4 hours.
The plates were read at 450 nm on the microplate spectrophotometer (SpectraMax plus 384, Molecular devices). The readings were normalized to the vehicle cells, and the IC50 was calculated by nonlinear regression analysis using GraphPad Prism 6 software.

For another series, the system named is NCI-H929 cells. The series can be described thus: Cell viability assay (NCI-H929 cells), CCK-8. Format: cell-based. To be noted: 5% FBS. The method, then:
NCI-H929 cells were obtained from American Type Culture Collection (ATCC). Cells were maintained in the recommended culture medium (RPMI 1640) with 10% FBS and 0.05 mM BME at 37° C. and an atmosphere of 5% CO2.
The effect of Compounds on cell viability was determined using Cell Counting Kit-8 (CCK-8) assay according to the manufacturer's instructions. 95 μL of NCI-H929 cell suspension (20000 cells/well) in culture medium were seeded into 96-well plates and cultured 4 hrs. Each tested compound was serially diluted in DMSO, then 5 μL of the compound or DMSO was diluted in 95 μL medium once more. At last, 5 μL of the compound dilution was added to the corresponding well of the cell plate. After the addition of the tested compound, the cells were incubated at 37° C. in an atmosphere of 5% CO2 for 24 hrs. At the end, 10 μL of CCK-8 solution was added to each well of the plate and incubated for 1-4 hours. The plates were read at 450 nm on the microplate reader (BioTek Synergy 1MF). The readings were normalized to the vehicle cells, and the IC50 was calculated by nonlinear regression analysis using GraphPad Prism 6 software. Cell Viability Assay (OPM-2 cells)

Series [2] can be described thus: Pharmacokinetic studies in mice (IV and PO). To be noted: for MRT last: read-out: MRT0-last. Format: in vivo. Here is the method: Administration: Mice in the IV group was dosed at 2 mg/kg (20% PEG 400+10% Cremophor EL+70% PBS 7.4) via tail vein injection (N=9). Mice in the PO group was dosed at 10 mg/kg (20% PEG 400+10% Cremophor EL+70% PBS 7.4) via oral gavage (N=9). All the mice were fasted overnight before dosing and had free access to food 4 hr post dosing.
Sampling: The animal was restrained manually at the designated time points (0.083, 0.25, 0.5, 1, 2, 4, 6, 8 and 24 hr), approximately 110 μL of blood sample was collected via retro-orbital puncture or cardiac puncture for terminal bleeding under the anesthesia with Isoflurane inhalation into K2EDTA tubes. The blood samples were maintained in wet ice first and centrifuged to obtain plasma (2000 g, 4° C., 5 min) within 15 minutes post sampling. All the plasma samples were stored at approximately −70° C. until analysis.

T1 sequence (Q07820 171-323): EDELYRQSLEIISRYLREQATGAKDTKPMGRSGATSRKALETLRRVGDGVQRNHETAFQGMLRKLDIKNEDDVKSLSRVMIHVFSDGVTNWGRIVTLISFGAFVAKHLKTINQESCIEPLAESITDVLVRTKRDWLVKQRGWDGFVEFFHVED

As to `CCO[C@@]1(CN2CCN3CCOC[C@@H]3C2)C2=C[C@@H](C2)[C@H](C)[C@@H](C)S(=O)(=O)NC(=O)c2ccc3c(c2)N(C[C@@H]2CC[C@H]21)C[C@@]1(CCCc2c1ccc(Cl)c2F)CO3` [compound 44, (1S,11′R,12′S,13′R,16′R,16a′R,18a′R,E)-6-chloro-16′-ethoxy-5-fluoro-16′-(((S)-hexahydropyrazino[2,1-c][1,4]oxazin-8(1H)-yl)methyl)-11′,12′-dimethyl-3,4,12,′13′,16′,16a′,17′,18′,18a′,19′-decahydro-1′H,2H,3′H,11′H-spiro[naphthalene-1,2′-[5,7]etheno[13,15]methanocyclobuta[i][1,4]oxazepino[3,4-f][1]thia[2,7]diazacyclohexadecin]-8′(9′H)-one 10′,10′-dioxide], the IC50 is 11 nM in series [1]; 48 nM in the series with OPM-2 cells (Homo sapiens, OPM-2, 24 h); 17 nM in the series with NCI-H929 cells (Homo sapiens, NCI-H929, 24 h).

Take `CO[C@@]1(CN2CCNCC2)C2=C[C@@H](C2)[C@H](C)[C@@H](C)S(=O)(=O)NC(=O)c2ccc3c(c2)N(C[C@@H]2CC[C@H]21)C[C@@]1(CCCc2c1ccc(Cl)c2F)CO3` [compound 41, (1S,11′R,12′S,13′R,16′R,16a′R,18a′R,E)-6-chloro-5-fluoro-16′-methoxy-11′,12′-dimethyl-16′-(piperazin-1-ylmethyl)-3,4,12′,13′,16′,16a′,17′,18′,18a′,19′-decahydro-1′H,2H,3′H, 11′H-spiro[naphthalene-1,2′-[5,7]etheno[13,15]methanocyclobuta[i][1,4]oxazepino[3,4-f][1]thia[2,7]diazacyclohexadecin]-8′(9′H)-one 10′,10′-dioxide]: the IC50 in series [1] was determined as 26 nM; in the series on OPM-2 cells (Homo sapiens, OPM-2, 24 h), 156 nM; in the series with NCI-H929 cells (Homo sapiens, NCI-H929, 24 h), 190 nM.

For the molecule `CC[C@@H]1CS(=O)(=O)NC(=O)c2ccc3c(c2)N(C[C@@H]2CC[C@H]2[C@@H](OC)C2=CC1C2)C[C@@]1(CCCc2cc(Cl)ccc21)CO3` (single isomer, unassigned) [Cpd. No. 9 (Isomer 2)], the IC50 in series [1] is 3.9 nM; with OPM-2 cells (24 h), 260 nM; with NCI-H929 cells (24 h), 210 nM.

As for `CO[C@@H]1C2=CC(C2)C(C)(C)CS(=O)(=O)NC(=O)c2ccc3c(c2)N(C[C@@H]2CC[C@H]21)C[C@@]1(CCCc2cc(Cl)ccc21)CO3` (single isomer, unassigned) [Cpd. No. 6 (Isomer 2)], the half-inhibitory concentration (IC50) turned out to be 6.3 nM in series [1], 2870 nM with OPM-2 cells (24 h) and 3400 nM with NCI-H929 cells (24 h).

Turning to `C[C@@H]1[C@@H](C)S(=O)(=O)NC(=O)c2ccc3c(c2)N(C[C@@H]2CC[C@H]2[C@@H](OCCN2CCCC2)C2=C[C@H]1C2)C[C@@]1(CCCc2c1ccc(Cl)c2F)CO3` [compound 66, (1S,11′R,12′S,13′R,16′R,16a′R,18a′R,E)-6-chloro-5-fluoro-11′,12′-dimethyl-16′-(2-(pyrrolidin-1-yl)ethoxy)-3,4,12′,13′,16′,16a′,17′,18′,18a′,19′-decahydro-1′H,2H,3′H,11′H-spiro[naphthalene-1,2′-[5,7]etheno[13,15]methanocyclobuta[i][1,4]oxazepino[3,4-f][1]thia[2,7]diazacyclohexadecin]-8′(9′H)-one 10′,10′-dioxide], the IC50 in series [1] worked out at 15 nM; with OPM-2 cells (Homo sapiens, OPM-2, 24 h), 31 nM; with NCI-H929 cells (Homo sapiens, NCI-H929, 24 h) it was 7.7 nM.

Regarding `CO[C@H]1C2=CC(C2)C(C)(C)CS(=O)(=O)NC(=O)c2ccc3c(c2)N(C[C@@H]2CC[C@H]21)C[C@@]1(CCCc2cc(Cl)ccc21)CO3` (single isomer, unassigned) [Cpd. No. 5 (Isomer 2)], the IC50 amounted to 8.3 nM in series [1], 5210 nM in the series on OPM-2 cells (24 h) and 1600 nM in the series on NCI-H929 cells (24 h).

As to `CO[C@H]1C2=CC(CCS(=O)(=O)NC(=O)c3ccc4c(c3)N(C[C@@H]3CC[C@H]31)C[C@@]1(CCCc3cc(Cl)ccc31)CO4)C2` (single isomer, unassigned) [Cpd. No. 1 (Isomer 1)], the IC50 in series [1] was determined as 6.8 nM; in the series on OPM-2 cells (24 h), 547 nM; in the series with NCI-H929 cells (24 h), 360 nM.

As to `C[C@@H]1[C@@H](C)S(=O)(=O)NC(=O)c2ccc3c(c2)N(C[C@@H]2CC[C@H]2[C@@H](OCC(=O)N2CCCCC2)C2=C[C@H]1C2)C[C@@]1(CCCc2c1ccc(Cl)c2F)CO3` [compound 69, (1S,11′R,12′S,13′R,16′R,16a′R,18a′R,E)-6-chloro-5-fluoro-11′,12′-dimethyl-16′-(2-oxo-2-(piperidin-1-yl)ethoxy)-3,4,12′,13′,16′,16a′,17′,18′,18a′,19′-decahydro-1′H,2H,3′H,11′H-spiro[naphthalene-1,2′-[5,7]etheno[13,15]methanocyclobuta[i][1,4]oxazepino[3,4-f][1]thia[2,7]diazacyclohexadecin]-8′(9′H)-one 10′,10′-dioxide], the IC50 in series [1] stood at 14 nM; in the series with OPM-2 cells (Homo sapiens, OPM-2, 24 h), 40 nM; in the series with NCI-H929 cells (Homo sapiens, NCI-H929, 24 h), 69 nM.

For the molecule `CO[C@H]1C2CC(CCS(=O)(=O)NC(=O)c3ccc4c(c3)N(C[C@@H]3CC[C@H]31)C[C@@]1(CCCc3cc(Cl)ccc31)CO4)C2` [compound 2], the IC50 in the series on OPM-2 cells (Homo sapiens, OPM-2, 24 h) turned out to be 10 nM; with NCI-H929 cells (Homo sapiens, NCI-H929, 24 h), 6.04 nM.

In the series with OPM-2 cells (Homo sapiens, OPM-2, 24 h), `CO[C@H]1/C=C/C[C@H](C)[C@@H](C)S(=O)(=O)NC(=O)c2ccc3c(c2)N(C[C@@H]2CC[C@H]21)C[C@@]1(CCCc2cc(Cl)ccc21)CO3` [AMG-176, reference compound] registered an IC50 of 335 nM. This molecule came in with a F in series [2] (PO 10 mg/kg vs IV 2 mg/kg) of 97.9%. In series [2] (mouse, plasma, IV 2 mg/kg), the AUC(0-inf) was 7450 ng·h/mL, the AUC(0-t) turned out to be 6800 ng·h/mL, the clearance was 4.5 mL/min/kg and the half-life was 7.2 h. Moreover, in series [2] (mouse, plasma, IV 2 mg/kg), the MRT last came to 6.3 h. Besides, the Cmax in series [2] (mouse, plasma, IV 2 mg/kg, read-out: C0/Cmax (C0)) worked out at 1550 ng/mL. Moreover, the Vd in series [2] (mouse, plasma, IV 2 mg/kg, read-out: Vss) came to 2.3 L/kg. In series [2] (mouse, plasma, PO 10 mg/kg), the AUC(0-inf) worked out at 36500 ng·h/mL, the AUC(0-t) turned out to be 32700 ng·h/mL, the Tmax came to 1 h and the half-life was 7.4 h. Further, the MRT last in series [2] (mouse, plasma, PO 10 mg/kg) was 7.4 h. The Cmax in series [2] (mouse, plasma, PO 10 mg/kg, read-out: C0/Cmax (Cmax)) came out at 2500 ng/mL. For the same molecule, in series [2] (mouse, plasma, PO 10 mg/kg, read-out: Vz/F), the Vd/F came out at 2.9 L/kg. Also, the IC50 in the series with NCI-H929 cells (Homo sapiens, NCI-H929, 24 h) was 138 nM.
